What was measured:
[1] = molecular target: T1, bovine mitochondria (ANT) (Bos taurus, UniProt P02722); experiment: 125I-compound 24 competition binding (Tube Assay), beef heart mitochondria
T1 construct: from tissue; host or cells: bovine heart mitochondria
T1 sequence (P02722 2-298 limits assumed): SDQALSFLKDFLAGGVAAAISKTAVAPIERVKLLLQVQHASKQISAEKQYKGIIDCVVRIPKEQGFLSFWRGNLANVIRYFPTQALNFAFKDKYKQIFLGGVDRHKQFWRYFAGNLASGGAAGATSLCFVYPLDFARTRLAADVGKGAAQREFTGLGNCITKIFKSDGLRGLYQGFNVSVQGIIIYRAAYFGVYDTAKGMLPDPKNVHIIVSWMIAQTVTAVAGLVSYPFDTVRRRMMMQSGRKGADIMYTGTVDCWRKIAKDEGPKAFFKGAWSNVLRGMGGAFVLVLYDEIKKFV
Method: Bovine mitochondria were prepared as follows: Essentially all of the fat and cholesterol […] was removed from two bovine hearts which were then cut into 1-inch cubes. The cubes were ground in a meat grinder using the fine setting. Three hundred (300) […] portions of the ground heart were weighed out and, to each was added 400 ml of Isolation Buffer (IB; 250 mM sucrose, 1 mM sodium succinate, 0.2 mM K^+EDTA, 10 mM Tris-base, pH 7.8). (All buffers were filter sterilized, and column buffers were degassed, and, unless otherwise noted, all steps were carried out at 0 to 4° C. on ice or in pre-cooled rotors and centrifuges.) The preparations were mixed in a blender two times for 15 seconds on high setting and, in between and after blends, the pH was adjusted to 7.8 with 2M Tris-base. The homogenate was centrifuged for 20 minutes at 1,200×g, and the supernatant was poured through two layers of cheese cloth and adjusted to pH 7.8 with 2M Tris-base. The supernatant was then centrifuged for 30 minutes at […]. The supernatant was decanted, and the buff-colored outer pellet was dislodged with about 10 ml of IB and discarded. The brown inner pellet (heavy mitochondria) was resuspended in IB (about 10 ml per pellet). The pellets were homogenized in a glass-teflon homogenizer (2 passes at high drill speed). Samples were combined and centrifuged for 30 minutes at 11,000×g. The supernatant was decanted, and the pellets were resuspended in 60 ml of IB per 900 gm of ground heart. This centrifugation step was repeated and the pellets were finally resuspended in IB (60 ml per 900 gm of ground heart). One kilogram of beef heart typically yields about one (1) gram of mitochondria
The mitochondrial preparations were divided into aliquots (typically, 50μl for T. ni mitochondria or 20 μl for bovine mitochondria) and then either used directly in assays or flash frozen and stored at −80° C. The total protein content in the mitochondrial preparations was determined using the enhanced protocol (30 minutes at 60° C.; see http://www.ruf.rice.edu/˜bioslabs/methods/protein/BCA.html) of the bicinchoninic acid (BCA) assay (available in kit form from Pierce, Rockford, Ill.).
In the “Tube Assay,” mitochondria (from about 1 to 10 μg of total protein) were resuspended in 100 μl of Tris-KCl buffer with 0.1% BSA, pH 7.4. ^125I-labeled compound 24 (Example 11) was added to a final concentration of 0.5 nM. When used, competitors were added at these concentration ranges: unlabeled atractyloside or compound 24 final concentration from 5 nM to 10 μM; unlabeled ADP (a lower affinity competitor) was added at a final concentration of 500 nM to 1 mM.
The reaction mixes were incubated on ice for 60 minutes and then pelleted by centrifugation (approximately 16,000×g) for 11 minutes at 4° C.
Unbound ^125I-compound 24 was removed by aspiration. The pellets were contact-washed with Tris-KCl buffer, pH 7.4, and recentrifuged. The resultant pellets were aspirated and the radioactivity (dpm) in each was determined by gamma counting.

His-tagged huANT3 = molecular target: T2, His-tagged huANT3 (Homo sapiens, UniProt P12236); experiment: 125I-compound 24 competition binding to recombinant His-tagged huANT3 immobilized on Ni beads; set-up: made in house; host or cells: baculovirus-infected Trichoplusia ni cells; mitochondria solubilized and captured on Ni-agarose beads (Qiagen); conditions: His-tagged huANT3 on Ni-agarose beads, 1 hour at 4° C.; FIG. 19
T2 sequence (P12236 1-298): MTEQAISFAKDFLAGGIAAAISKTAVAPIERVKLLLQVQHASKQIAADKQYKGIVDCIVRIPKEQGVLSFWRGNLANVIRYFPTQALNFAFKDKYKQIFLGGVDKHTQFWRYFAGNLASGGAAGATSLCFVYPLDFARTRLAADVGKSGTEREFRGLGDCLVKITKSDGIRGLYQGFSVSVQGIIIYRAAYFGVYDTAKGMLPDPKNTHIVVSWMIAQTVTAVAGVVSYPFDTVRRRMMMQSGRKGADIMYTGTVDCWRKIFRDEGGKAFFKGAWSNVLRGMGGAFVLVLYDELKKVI
Method: Competitive binding assays were also performed using recombinant His-tagged huANT3 (see Example 3) immobilized on Ni beads (FIG. 19) instead of mitochondria. To prepare the bead-immobilized huANT3, mitochondria from T. ni cells infected with a baculovirus expressing huANT3 (see Example 3) were solubilized with 0.5% O-glucopyranoside in the presence of 0.5 nM ^125I-compound 24 Ni-agarose beads (Qiagen, Hilden, Germany), and various concentrations of ATR or BKA as unlabeled competitors. After 1 hour at 4° C., the beads were washed and radioactivity that remained associated with the beads was counted.

SMILES	competitive inhibition of 125I-compound 24 binding (in words) ([1]; FIGS. 11, 13, 16)	competitive inhibition of 125I-compound 24 binding (in words) (His-tagged huANT3)	IC50 ([1]; 0.5 nM 125I-compound 24, FIG. 18, read-out: IC50, competitive inhibition of 125I-compound 24 binding) [µM]
CO[C@H](C/C=C\C=C\CC/C=C/C[C@H](C)/C=C/C(=C\C(=O)O)CC(=O)O)/C(C)=C\C=C(/C)C(=O)O [BKA, bongkrekic acid]	effectively displaced labeled compound 24, albeit with a slightly lower affinity than unlabeled compound 24	effectively compete with compound 24	–
CC(C)CC(=O)OC1C(OC2CC(C(=O)O)C3CCC45CC(CCC4C3(C)C2)C(C)C5O)OC(CO)C(OS(=O)(=O)O)C1OS(=O)(=O)O (stereo not drawn) [compound 5, Dihydroatractyloside]	–	–	~3.3

Source: patent US6906175B2, “Production of adenine nucleotide translocator (ANT), novel ANT ligands and screening assays therefor” (priority 1998, dated 2005)
